The source of these data is ChEMBL document CHEMBL1909046, “DrugMatrix in vitro pharmacology data”.

A short description of data set [1]: DRUGMATRIX: Sigma2 radioligand binding (ligand: [3H] Ifenprodil). The class given is cell membranes, Rattus norvegicus, Wistar, Brain, Membrane. The following applies: Not Active = under 50% inhibition at 10 µM.
In data set [2] the target is C-C chemokine receptor type 2 (Homo sapiens, UniProt P41597). The format is cell membranes, CHO-K1, Membrane. The following applies: cho-k1. Note: in other assays of this panel Not Active means under 50% inhibition at 10 µM.
A short description of data set [3]: DRUGMATRIX: Imidazoline I2, Central radioligand binding (ligand: [3H] Idazoxan). To be noted: Not Active = under 50% inhibition at 10 µM. The format is cell membranes, Rattus norvegicus, Wistar, Cerebral cortex, Membrane.
Another data set addresses T1, Progesterone receptor (Bos taurus, UniProt Q690N0).
T1 sequence (Q690N0 whole entry): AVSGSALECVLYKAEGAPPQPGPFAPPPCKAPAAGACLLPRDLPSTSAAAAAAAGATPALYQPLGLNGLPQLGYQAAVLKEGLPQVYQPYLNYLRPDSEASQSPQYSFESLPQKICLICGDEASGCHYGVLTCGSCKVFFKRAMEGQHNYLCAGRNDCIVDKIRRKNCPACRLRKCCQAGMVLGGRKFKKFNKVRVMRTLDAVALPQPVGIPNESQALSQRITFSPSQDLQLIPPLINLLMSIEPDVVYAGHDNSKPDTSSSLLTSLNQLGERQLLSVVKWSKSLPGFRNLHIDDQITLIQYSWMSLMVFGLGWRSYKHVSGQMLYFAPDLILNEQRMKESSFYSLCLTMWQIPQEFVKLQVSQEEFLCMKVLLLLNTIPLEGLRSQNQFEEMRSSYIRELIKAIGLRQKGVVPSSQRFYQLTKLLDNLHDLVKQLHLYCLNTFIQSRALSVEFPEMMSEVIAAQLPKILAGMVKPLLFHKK
Nature of the data set: DRUGMATRIX: Progesterone radioligand binding (ligand: [3H] R-5020). The format is tissue-based, Uterus. The following applies: Not Active = under 50% inhibition at 10 µM; for Ki: read-out: Ki.

In another data set the target is Cytochrome P450 3A4 (Homo sapiens, UniProt P08684). The following applies: bti-tn-5b1-4. Note: in other assays of this panel Not Active means under 50% inhibition at 10 µM.
Data set [4] addresses Voltage-gated inwardly rectifying potassium channel KCNH2 (Homo sapiens, UniProt Q12809). The following applies: hek293.

The IC50 is the concentration that gives 50% inhibition. As a reminder, the Ki is the equilibrium dissociation constant of an inhibitor or competing ligand from its target.

Sequence of Voltage-gated inwardly rectifying potassium channel KCNH2 (Q12809 whole entry): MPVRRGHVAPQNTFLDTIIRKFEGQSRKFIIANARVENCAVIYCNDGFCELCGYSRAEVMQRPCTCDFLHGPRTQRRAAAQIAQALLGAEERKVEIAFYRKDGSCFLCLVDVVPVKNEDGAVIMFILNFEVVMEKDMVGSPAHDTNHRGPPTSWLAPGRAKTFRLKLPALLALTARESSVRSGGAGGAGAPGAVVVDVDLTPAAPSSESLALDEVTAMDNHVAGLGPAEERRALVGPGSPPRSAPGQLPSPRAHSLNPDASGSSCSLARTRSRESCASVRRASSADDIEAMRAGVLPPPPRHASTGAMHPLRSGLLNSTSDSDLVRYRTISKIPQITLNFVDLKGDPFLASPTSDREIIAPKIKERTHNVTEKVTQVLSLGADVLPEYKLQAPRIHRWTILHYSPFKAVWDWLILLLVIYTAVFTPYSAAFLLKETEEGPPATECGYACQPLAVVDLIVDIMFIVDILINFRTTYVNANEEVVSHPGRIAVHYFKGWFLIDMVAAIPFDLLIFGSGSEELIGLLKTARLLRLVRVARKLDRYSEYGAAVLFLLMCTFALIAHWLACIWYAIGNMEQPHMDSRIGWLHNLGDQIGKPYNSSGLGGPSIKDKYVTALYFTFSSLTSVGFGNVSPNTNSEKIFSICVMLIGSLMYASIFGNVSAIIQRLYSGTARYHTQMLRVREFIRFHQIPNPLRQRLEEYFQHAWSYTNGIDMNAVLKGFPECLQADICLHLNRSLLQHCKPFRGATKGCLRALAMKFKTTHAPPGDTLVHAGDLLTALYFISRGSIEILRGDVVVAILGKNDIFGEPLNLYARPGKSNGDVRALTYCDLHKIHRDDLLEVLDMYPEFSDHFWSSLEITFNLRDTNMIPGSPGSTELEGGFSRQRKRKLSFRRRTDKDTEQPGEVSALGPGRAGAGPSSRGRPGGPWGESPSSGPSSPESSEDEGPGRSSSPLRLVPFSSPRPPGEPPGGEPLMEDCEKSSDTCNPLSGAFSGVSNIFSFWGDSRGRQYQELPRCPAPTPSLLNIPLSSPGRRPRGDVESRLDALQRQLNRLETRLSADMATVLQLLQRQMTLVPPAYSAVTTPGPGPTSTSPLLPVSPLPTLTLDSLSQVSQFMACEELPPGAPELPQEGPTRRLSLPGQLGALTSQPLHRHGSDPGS
Sequence of Cytochrome P450 3A4 (P08684 whole entry): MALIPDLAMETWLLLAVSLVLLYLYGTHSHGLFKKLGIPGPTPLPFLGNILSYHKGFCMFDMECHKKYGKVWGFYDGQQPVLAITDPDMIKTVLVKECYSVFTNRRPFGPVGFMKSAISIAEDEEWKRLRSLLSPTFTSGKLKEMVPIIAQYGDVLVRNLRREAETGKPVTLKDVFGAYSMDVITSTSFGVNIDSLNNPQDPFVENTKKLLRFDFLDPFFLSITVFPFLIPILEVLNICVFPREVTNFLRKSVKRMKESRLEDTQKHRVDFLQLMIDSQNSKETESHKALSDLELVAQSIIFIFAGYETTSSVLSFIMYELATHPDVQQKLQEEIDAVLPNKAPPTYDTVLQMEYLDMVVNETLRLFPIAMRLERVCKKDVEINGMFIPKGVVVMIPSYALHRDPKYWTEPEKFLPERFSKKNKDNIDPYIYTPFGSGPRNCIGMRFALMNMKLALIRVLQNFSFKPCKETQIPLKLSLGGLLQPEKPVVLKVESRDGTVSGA
Sequence of C-C chemokine receptor type 2 (P41597 whole entry): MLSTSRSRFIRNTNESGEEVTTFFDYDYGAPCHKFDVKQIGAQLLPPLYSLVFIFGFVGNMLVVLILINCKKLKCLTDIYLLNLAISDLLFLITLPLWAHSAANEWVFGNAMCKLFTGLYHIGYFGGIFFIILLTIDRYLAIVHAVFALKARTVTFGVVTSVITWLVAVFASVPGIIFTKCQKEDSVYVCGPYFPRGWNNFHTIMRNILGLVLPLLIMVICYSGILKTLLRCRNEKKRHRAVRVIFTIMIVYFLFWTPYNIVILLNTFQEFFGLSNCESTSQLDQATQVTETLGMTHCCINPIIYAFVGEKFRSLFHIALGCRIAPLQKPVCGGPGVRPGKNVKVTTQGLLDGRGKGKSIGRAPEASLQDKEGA

Turning to `O=P1(N(CCCl)CCCl)NCCCO1` (stereo not drawn) [CYCLOPHOSPHAMIDE ANHYDROUS], the IC50 result (in data set [1]; in data set [2]; in data set [3]; at Progesterone receptor; against Cytochrome P450 3A4; in data set [4]) was “Not Active” in each case. The Ki entry (in data set [1]; in data set [3]; on Cytochrome P450 3A4; in data set [4]) was “Not Active” throughout.

Regarding `CC(=O)O[C@]1(C(C)=O)CC[C@H]2[C@@H]3C=C(Cl)C4=CC(=O)[C@@H]5C[C@@H]5[C@]4(C)[C@H]3CC[C@@]21C` [CYPROTERONE ACETATE], the IC50 result in data set [1] was “Not Active”; in data set [2], “Not Active”; in data set [3] it was “Not Active”; on Progesterone receptor (read-out: IC50), 37 nM; at Cytochrome P450 3A4, “Not Active”; in data set [4] it was “Not Active”. The Ki result in data set [1] was “Not Active”; in data set [3], “Not Active”; at Progesterone receptor, 4.84 nM; at Cytochrome P450 3A4, “Not Active”; in data set [4] it was “Not Active”.

In the case of `Nc1nc(N)nc(NC2CC2)n1` [CYROMAZINE], the IC50 result (in data set [1]; in data set [2]; in data set [3]; at Progesterone receptor; on Cytochrome P450 3A4; in data set [4]) was “Not Active” in each case. Further, the Ki result (in data set [1]; in data set [3]; at Cytochrome P450 3A4; in data set [4]) was “Not Active” each time.

In the case of `C#C[C@]1(O)CC[C@H]2[C@@H]3CCC4=Cc5oncc5C[C@]4(C)[C@H]3CC[C@@]21C` [DANAZOL], the IC50 result in data set [1] was “Not Active”; in data set [2], “Not Active”; in data set [3], “Not Active”; on Progesterone receptor (read-out: IC50), 259 nM; against Cytochrome P450 3A4, “Not Active”; in data set [4] it was “Not Active”. Besides, the Ki result in data set [1] was “Not Active”; in data set [3], “Not Active”; on Progesterone receptor, 34 nM; on Cytochrome P450 3A4, “Not Active”; in data set [4], “Not Active”.

In the case of `CCN[C@@H](C)Cc1cccc(C(F)(F)F)c1` [DEXFENFLURAMINE], the IC50 result (in data set [1]; in data set [2]; in data set [3]; on Progesterone receptor; against Cytochrome P450 3A4; in data set [4]) was “Not Active” throughout. The Ki entry (in data set [1]; in data set [3]; on Cytochrome P450 3A4; in data set [4]) was “Not Active” throughout.

Turning to `C[C@H](C(=O)O)c1cccc(C(=O)c2ccccc2)c1` [DEXKETOPROFEN], the IC50 entry (in data set [1]; in data set [2]; in data set [3]; on Progesterone receptor; against Cytochrome P450 3A4; in data set [4]) was “Not Active” each time. In addition, the Ki entry (in data set [1]; in data set [3]; at Cytochrome P450 3A4; in data set [4]) was “Not Active” in each case.

On to `Cc1c(N(C)CS(=O)(=O)[O-])c(=O)n(-c2ccccc2)n1C.[Na+]` [DIPYRONE SODIUM], for which the IC50 entry (in data set [1]; in data set [2]; in data set [3]; at Progesterone receptor; against Cytochrome P450 3A4; in data set [4]) was “Not Active” throughout. Further, the Ki result (in data set [1]; in data set [3]; at Cytochrome P450 3A4; in data set [4]) was “Not Active” each time.

Turning to `CC(CCc1ccc(O)cc1)NCCc1ccc(O)c(O)c1` (stereo not drawn) [DOBUTAMINE], the IC50 in data set [1] (read-out: IC50) is 2600 nM; in data set [2] it was “Not Active”; in data set [3], “Not Active”; at Progesterone receptor it was “Not Active”; against Cytochrome P450 3A4, “Not Active”; in data set [4], “Not Active”. The Ki was 1600 nM in data set [1] (read-out: Ki), “Not Active” in data set [3], “Not Active” at Cytochrome P450 3A4 and “Not Active” in data set [4].

Take `CCn1cc(C(=O)O)c(=O)c2cc(F)c(N3CCNCC3)nc21` [ENOXACIN]: the IC50 entry (in data set [1]; in data set [2]; in data set [3]; on Progesterone receptor; on Cytochrome P450 3A4; in data set [4]) was “Not Active” throughout. Also, the Ki entry (in data set [1]; in data set [3]; on Cytochrome P450 3A4; in data set [4]) was “Not Active” throughout.

Turning to `CCC(=O)O[C@H]1[C@H](O[C@@H]2[C@@H](C)[C@H](O[C@H]3C[C@@](C)(OC)[C@@H](O)[C@H](C)O3)[C@@H](C)C(=O)O[C@H](CC)[C@@](C)(O)[C@H](O)[C@@H](C)C(=O)[C@H](C)C[C@@]2(C)O)O[C@H](C)C[C@@H]1N(C)C` [ERYTHROMYCIN PROPIONATE], the IC50 entry (in data set [1]; in data set [2]; in data set [3]; at Progesterone receptor; on Cytochrome P450 3A4; in data set [4]) was “Not Active” in each case. The Ki result (in data set [1]; in data set [3]; on Cytochrome P450 3A4; in data set [4]) was “Not Active” in each case.

`C=C(CC)C(=O)c1ccc(OCC(=O)O)c(Cl)c1Cl` [ETHACRYNIC ACID]: the IC50 result (in data set [1]; in data set [2]; in data set [3]; on Progesterone receptor; against Cytochrome P450 3A4; in data set [4]) was “Not Active” throughout. Besides, the Ki result (in data set [1]; in data set [3]; at Cytochrome P450 3A4; in data set [4]) was “Not Active” in each case.

Consider `C#C[C@]1(O)CC[C@H]2[C@@H]3CCc4cc(O)ccc4[C@H]3CC[C@@]21C` [ETHINYL ESTRADIOL], for which the IC50 entry in data set [1] is “Not Active”; in data set [2], “Not Active”; in data set [3] it was “Not Active”; on Progesterone receptor (read-out: IC50), 1070 nM; on Cytochrome P450 3A4 it was “Not Active”; in data set [4], “Not Active”. The Ki entry in data set [1] is “Not Active”; in data set [3], “Not Active”; on Progesterone receptor, 139 nM; at Cytochrome P450 3A4, “Not Active”; in data set [4] it was “Not Active”.

Consider `OCCO` [ETHYLENE GLYCOL], for which the IC50 result (in data set [1]; in data set [2]; in data set [3]; at Progesterone receptor; on Cytochrome P450 3A4; in data set [4]) was “Not Active” in each case. Besides, the Ki result (in data set [1]; in data set [3]; at Cytochrome P450 3A4; in data set [4]) was “Not Active” throughout.

As for `CC(=O)OCC(CCn1cnc2cnc(N)nc21)COC(C)=O` [FAMCICLOVIR], the IC50 result (in data set [1]; in data set [2]; in data set [3]; on Progesterone receptor; on Cytochrome P450 3A4; in data set [4]) was “Not Active” in each case. Besides, the Ki result (in data set [1]; in data set [3]; at Cytochrome P450 3A4; in data set [4]) was “Not Active” throughout.

On to `O=C(O)Cc1ccc(-c2ccccc2)cc1` [FELBINAC], for which the IC50 result (in data set [1]; in data set [2]; in data set [3]; at Progesterone receptor; at Cytochrome P450 3A4; in data set [4]) was “Not Active” in each case. Further, the inhibitory constant (Ki) result (in data set [1]; in data set [3]; at Cytochrome P450 3A4; in data set [4]) was “Not Active” in each case.

On to `NC[C@@H]1O[C@H](O[C@H]2[C@@H](O)[C@H](O[C@@H]3[C@@H](O)[C@H](N)C[C@H](N)[C@H]3O[C@H]3O[C@H](CN)[C@@H](O)[C@H](O)[C@H]3N)O[C@@H]2CO)[C@H](N)[C@@H](O)[C@@H]1O` [FRAMYCETIN], for which the IC50 result (in data set [1]; in data set [2]; in data set [3]; at Progesterone receptor; at Cytochrome P450 3A4; in data set [4]) was “Not Active” throughout. Also, the Ki entry (in data set [1]; in data set [3]; on Cytochrome P450 3A4; in data set [4]) was “Not Active” in each case.

With `C[C@H]([C@](O)(Cn1cncn1)c1ccc(F)cc1F)S(C)(=O)=O` [GENACONAZOLE], the IC50 result (in data set [1]; in data set [2]; in data set [3]; at Progesterone receptor; against Cytochrome P450 3A4; in data set [4]) was “Not Active” throughout. Further, the Ki entry (in data set [1]; in data set [3]; at Cytochrome P450 3A4; in data set [4]) was “Not Active” throughout.

For the molecule `Cc1c(F)c(N2CCNC(C)C2)cc2c1c(=O)c(C(=O)O)cn2C1CC1` (stereo not drawn) [GREPAFLOXACIN], the IC50 result (in data set [1]; in data set [2]; in data set [3]; on Progesterone receptor; against Cytochrome P450 3A4; in data set [4]) was “Not Active” in each case. The Ki entry (in data set [1]; in data set [3]; on Cytochrome P450 3A4; in data set [4]) was “Not Active” in each case.
